Experimental data as given in patent US8119681B2, “2-[1-phenyl-5-hydroxy or methoxy-4alpha-methyl-hexahydrocyclopenta [ƒ]indazole-5-YL]ethyl phenyl derivatives as glucocorticoid receptor ligands” (Merck Sharp & Dohme Corp., priority 2006, dated 2012).

How the values were obtained:
[1] = target: T1, human GR (Homo sapiens, UniProt P04150); experiment: Trans-Activation Modulation of Glucocorticoid Receptor (GRAMMER), MMTV-LUC reporter gene; assay type: cell-based; design: endogenous in cells; details: for Emax: A549; for EC50: A549 cells, IP = inflection point
T1 sequence (P04150 1-777): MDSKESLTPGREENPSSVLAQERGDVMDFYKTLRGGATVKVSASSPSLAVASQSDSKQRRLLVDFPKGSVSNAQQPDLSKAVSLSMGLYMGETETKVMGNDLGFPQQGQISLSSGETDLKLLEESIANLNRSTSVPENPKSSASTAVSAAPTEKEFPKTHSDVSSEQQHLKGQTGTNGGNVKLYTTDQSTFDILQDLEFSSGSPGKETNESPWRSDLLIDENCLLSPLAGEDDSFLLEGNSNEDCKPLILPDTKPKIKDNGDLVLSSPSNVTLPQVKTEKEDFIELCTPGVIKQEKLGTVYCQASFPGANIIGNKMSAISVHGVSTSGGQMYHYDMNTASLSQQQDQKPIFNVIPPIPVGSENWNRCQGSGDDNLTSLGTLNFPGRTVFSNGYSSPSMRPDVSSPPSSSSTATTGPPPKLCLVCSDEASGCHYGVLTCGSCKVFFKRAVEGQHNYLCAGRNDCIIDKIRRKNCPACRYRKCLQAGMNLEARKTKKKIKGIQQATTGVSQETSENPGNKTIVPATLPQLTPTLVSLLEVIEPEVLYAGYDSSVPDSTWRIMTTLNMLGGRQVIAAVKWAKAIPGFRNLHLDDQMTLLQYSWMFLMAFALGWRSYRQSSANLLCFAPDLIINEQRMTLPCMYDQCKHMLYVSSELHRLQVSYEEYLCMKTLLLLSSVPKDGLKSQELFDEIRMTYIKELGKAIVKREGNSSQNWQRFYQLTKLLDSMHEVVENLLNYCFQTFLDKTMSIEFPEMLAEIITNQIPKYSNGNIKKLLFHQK
Source text: Trans-Activation Modulation of Glucocorticoid Receptor (GRAMMER)
This assay assesses the ability of test compounds to control transcription from the MMTV-LUC reporter gene in lung adenocarcinoma A549 cells or HeLa cells, a human […] cell line that naturally expresses the human GR. The assay measures induction of a modified MMTV LTR/promoter linked to the LUC reporter gene.
The routine transient assay consists of plating 7,000-25,000 cells/well of a white, clear-bottom 96-well plate. Alternatively, 384-well plates can be used at a cell concentration of 10,000/well. The media that the cells are plated in is “exponential growth medium” which consists of phenol red-free RPMI1640 containing 10% FBS, 4 mM L-glutamine, 20 mM HEPES, 10 ug/mL human insulin, and 20 ug/mL gentamicin. Incubator conditions are 37° C. and 5% CO2. The transfection is done in batch mode. The cells are trypsinized and counted to the right cell number in the proper amount of fresh media. It is then gently mixed with the FuGene6/DNA mix and plated onto the 96 or 384-well plate, all the wells receive 100 uL or 40 uL, respectively, of medium+lipid/DNA complex then incubated 37° C. overnight. The transfection cocktail consists of serum-free OptiMEM, FuGene6 reagent and DNA. The manufacturer's (Roche Biochemical) protocol for cocktail setup is as follows: The lipid to DNA ratio is approximately 2.5:1 and the incubation time is 20 min at room temperature. Sixteen to 24 hours after transfection, the cells are treated with dexamethasone to a final concentration of 10 nM as well as the compound of interest, such that final DMSO (vehicle) concentration is equal to or less than 1%. Each plate also contains samples that are treated with 10 nM dexamethasone alone, which is used as the 100% activity control. The cells are exposed to the compounds for 24 hours. After 24 hours, the cells are lysed by a Promega cell culture lysis buffer for approximately 30 min and then the luciferase activity in the extracts is assayed in the 96-well format luminometer. In 384-well format, Steady-Glo (Promega) or Steady-Lite (PerkinElmer) can be used by adding an equal volume of reagent to the media present in each well. Activity induced by 10 nM dexamethasone alone is set at 100% activity. Antagonist activity is calculated by determining the decrease in dexamethasone-induced activity in response to compound treatment relative to samples that were treated with dexamethasone alone. […] This transactivation assay can be performed in an agonist and antagonist mode to identify these different activities. […]

[2] = target: T1, human GR; experiment: Transrepression Assay (GITAR), TNFα-β-lactamase reporter gene in U937 cells; assay type: cell-based; design: U937 cells contain an endogenous glucocorticoid receptor (GR); endogenous in cells; host or cells: U937 cells stably transfected with the TNF-α promoter/β-lactamase reporter only; details: for EC50: IP = inflection point; for GITAR > GRAMM % SEP: separation of GITAR Emax over GRAMMER Emax; for Emax: U-937
Outline: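 Reporter readout used CCF2-AM loading for 70–90 min at room temperature after overnight (~18 h, 37 °C) PMA (5 ng/ml final) and LPS (100 ng/ml final) stimulation of compound-treated (30–45 min) TNFα-β-lactamase U937 cells expressing native GR. Activity was normalised to 100 nM dexamethasone repression.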

[3] = read-out: Transactivation A549 Cells GRAMMER Emax (%)
[4] = Table 1, read-out: Transactivation A549 Cells GRAMMER IP
[5] = Table 1, U937 cells, read-out: Transrepression U937 Cells GITAR IP
[6] = 100 nM dexamethasone = 100% activity, read-out: maximal activity in the transrepression assay
[7] = Table 1, U937 cells, activity repressed by 100 nM dexamethasone = 100%, read-out: Transrepression U937 Cells GITAR Emax (%)
[8] = read-out: Transactiviation A549 Cells GRAMMER Emax (%)
[9] = Table 2, read-out: Transactiviation A549 Cells GRAMMER IP
[10] = Table 2, U937 cells, read-out: Transactiviation U937 Cells GITAR IP
[11] = Table 2, U937 cells, activity repressed by 100 nM dexamethasone = 100%, read-out: Transactiviation U937 Cells GITAR Emax (%)

SMILES | Emax [1, 3] [%] | EC50 [1, 4] [nM] | EC50 [2, 5] [nM] | GITAR > GRAMM % SEP ([2]; Table 1) [%] | Emax [2, 6] [%] | Emax [2, 7] [%] | Emax [1, 8] [%] | EC50 [1, 9] [nM] | EC50 [2, 10] [nM] | GITAR > GRAMM % SEP ([2]; Table 2) [%] | Emax [2, 11] [%]
CC(C)CNC(=O)c1ccccc1CC[C@]1(O)CCC2=Cc3c(cnn3-c3ccc(F)cc3)C[C@@]21C [Example 29, 2-{2-[(4αS,5R)-1-(4-fluorophenyl)-5-hydroxy-4α-methyl-1,4,4α,5,6,7-hexahydrocyclopenta[f]indazol-5-yl]ethyl}-N-isobutylbenzamide] | 24 | 95 | 190 | 37 | 5 to 100 | 61 |  |  |  |  | 
CCCNC(=O)c1ccccc1CC[C@]1(O)CCC2=Cc3c(cnn3-c3ccc(F)cc3)C[C@@]21C [Example 30, 2-{2-[(4αS,5R)-1-(4-fluorophenyl)-5-hydroxy-4α-methyl-1,4,4α,5,6,7-hexahydrocyclopenta[f]indazol-5-yl]ethyl}-N-propylbenzamide] | 29 | 81 | 127 | 21 | 5 to 100 | 50 |  |  |  |  | 
CC(CNC(=O)c1ccccc1CC[C@]1(O)CCC2=Cc3c(cnn3-c3ccc(F)cc3)C[C@@]21C)C(F)(F)F (stereo partly drawn) [Example 31, 2-{2-[(4αS,5R)-1-(4-fluorophenyl)-5-hydroxy-4α-methyl-1,4,4α,5,6,7-hexahydrocyclopenta[f]indazol-5-yl]ethyl}-N-(3,3,3-trifluoro-2-methylpropyl)benzamide] | 9 | 93 | 183 | 39 | 5 to 100 | 48 |  |  |  |  | 
C=C(C)CNC(=O)c1ccccc1CC[C@]1(O)CCC2=Cc3c(cnn3-c3ccc(F)cc3)C[C@@]21C [Example 32, 2-{2-[(4αS,5R)-1-(4-fluorophenyl)-5-hydroxy-4α-methyl-1,4,4α,5,6,7-hexahydrocyclopenta[f]indazol-5-yl]ethyl}-N-(2-methylprop-2-en-1-yl)benzamide] | 13 | 134 | 277 | 36 | 5 to 100 | 49 |  |  |  |  | 
C=CCNC(=O)c1ccccc1CC[C@]1(O)CCC2=Cc3c(cnn3-c3ccc(F)cc3)C[C@@]21C [Example 33, N-allyl-2-{2-[(4αS,5R)-1-(4-fluorophenyl)-5-hydroxy-4α-methyl-1,4,4α,5,6,7-hexahydrocyclopenta[f]indazol-5-yl]ethyl}benzamide] | 37 | 62 | 123 | 25 | 5 to 100 | 62 |  |  |  |  | 
CC1(NC(=O)c2ccccc2CC[C@]2(O)CCC3=Cc4c(cnn4-c4ccccc4)C[C@@]32C)CC1 [Example 34, 2-{2-[(4αS,5R)-5-hydroxy-4α-methyl-1-phenyl-1,4,4α,5,6,7-hexahydrocyclopenta[f]indazol-5-yl]ethyl}-N-(1-methylcyclopropyl)benzamide] | 13 | 128 | 208 | 41 | 5 to 100 | 54 |  |  |  |  | 
CC(C)NC(=O)c1ccccc1CC[C@]1(O)CCC2=Cc3c(cnn3-c3ccc(F)cc3)C[C@@]21C [Example 35, 2-{2-[(4αS,5R)-1-(4-fluorophenyl)-5-hydroxy-4α-methyl-1,4,4α,5,6,7-hexahydrocyclopenta[f]indazol-5-yl]ethyl}-N-isopropylbenzamide] | 48 | 60 | 170 | 14 | 5 to 100 | 62 |  |  |  |  | 
C[C@]12Cc3cnn(-c4ccc(F)cc4)c3C=C1CC[C@@]2(O)CCc1ccccc1C(=O)NCC1CC1 [Example 37, N-(cyclopropylmethyl)-2-{2-[(4αS,5R)-1-(4-fluorophenyl)-5-hydroxy-4α-methyl-1,4,4α,5,6,7-hexahydrocyclopenta[r]indazol-5-yl]ethyl}benzamide] | 57 | 65 | 81 | 1 | 5 to 100 | 58 |  |  |  |  | 
CC(CNC(=O)c1c(F)cccc1CC[C@]1(O)CCC2=Cc3c(cnn3-c3ccc(F)cc3)C[C@@]21C)C(F)(F)F (stereo partly drawn) [Example 38, 2-fluoro-6-{2-[(4αS,5R)-1-(4-fluorophenyl)-5-hydroxy-4α-methyl-1,4,4α,5,6,7-hexahydrocyclopenta[f]indazol-5-yl]ethyl}-N-(3,3,3-trifluoro-2-methylpropyl)benzamide] | 15 | 91 | 152 | 44 | 5 to 100 | 58 |  |  |  |  | 
C[C@]12Cc3cnn(-c4ccc(F)cc4)c3C=C1CC[C@@]2(O)CCc1ccccc1Cl [Example 40 WO 2004/075840 A2, reference compound] |  |  |  |  |  |  | 98 | 162 | 212 | −7 | 91
C[C@]12Cc3cnn(-c4ccc(F)cc4)c3C=C1CC[C@@]2(O)CCc1ccccc1C(=O)N1CCC1 [Example 40, (4αS,5R)-5-{2-[2-(azetidin-1-ylcarbonyl)phenyl]ethyl}-1-(4-fluorophenyl)-4α-methyl-1,4,4α,5,6,7-hexahydrocyclopenta[f]indazol-5-ol] | 46 | 231 | 246 | 17 | 5 to 100 | 64 |  |  |  |  | 
C[C@]12Cc3cnn(-c4ccc(F)cc4)c3C=C1CCC[C@@]2(O)CCc1ccccc1Cl [Example 41 WO 2004/075840 A2, reference compound] |  |  |  |  |  |  | 92 | 123 | 270 | −3 | 88
COC(=O)C(C)(C)NC(=O)c1c(F)cccc1CC[C@]1(O)CCC2=Cc3c(cnn3-c3ccc(F)cc3)C[C@@]21C [Example 41, methyl N-(2-fluoro-6-{2-[(4αS,5R)-1-(4-fluorophenyl)-5-hydroxy-4α-methyl-1,4,4α,5,6,7-hexahydrocyclopenta[f]indazol-5-yl]ethyl}benzoyl)-2-methylalaninate] | 18 | 46 | 115 | 44 | 5 to 100 | 62 |  |  |  |  | 
